{"source": "paper PMC2799458", "about": "“Diastereomers of the Brominated Flame Retardant 1,2-Dibromo-4-(1,2 dibromoethyl)cyclohexane Induce Androgen Receptor Activation in the HepG2 Hepatocellular Carcinoma Cell Line and the LNCaP Prostate Cancer Cell Line” (Environmental Health Perspectives, 2009)", "key": {"[1]": {"molecular_target": "T1, AR-LBD (Rattus norvegicus, UniProt P15207)", "T1 construct": "purchased PanVera, Madison, WI, USA", "T1 sequence (P15207 651-882 limits assumed)": "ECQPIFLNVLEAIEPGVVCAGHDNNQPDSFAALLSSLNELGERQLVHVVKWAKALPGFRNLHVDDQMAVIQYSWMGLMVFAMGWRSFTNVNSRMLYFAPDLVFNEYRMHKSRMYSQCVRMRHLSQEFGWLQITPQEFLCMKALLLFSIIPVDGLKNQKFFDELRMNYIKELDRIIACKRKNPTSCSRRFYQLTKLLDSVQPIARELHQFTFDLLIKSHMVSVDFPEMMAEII", "experiment": "PolarScreen AR competition assay (polarization fluorometry)", "assay_type": "binding", "protocol": "The final concentration of AR LBD was 50 nM. […] All analyses were performed in triplicate."}, "[2]": {"molecular_target": "T2, hAR (Homo sapiens, UniProt P10275)", "T2 construct": "expressed in transfected cells; host or cells: HepG2", "T2 sequence (P10275 1-920)": "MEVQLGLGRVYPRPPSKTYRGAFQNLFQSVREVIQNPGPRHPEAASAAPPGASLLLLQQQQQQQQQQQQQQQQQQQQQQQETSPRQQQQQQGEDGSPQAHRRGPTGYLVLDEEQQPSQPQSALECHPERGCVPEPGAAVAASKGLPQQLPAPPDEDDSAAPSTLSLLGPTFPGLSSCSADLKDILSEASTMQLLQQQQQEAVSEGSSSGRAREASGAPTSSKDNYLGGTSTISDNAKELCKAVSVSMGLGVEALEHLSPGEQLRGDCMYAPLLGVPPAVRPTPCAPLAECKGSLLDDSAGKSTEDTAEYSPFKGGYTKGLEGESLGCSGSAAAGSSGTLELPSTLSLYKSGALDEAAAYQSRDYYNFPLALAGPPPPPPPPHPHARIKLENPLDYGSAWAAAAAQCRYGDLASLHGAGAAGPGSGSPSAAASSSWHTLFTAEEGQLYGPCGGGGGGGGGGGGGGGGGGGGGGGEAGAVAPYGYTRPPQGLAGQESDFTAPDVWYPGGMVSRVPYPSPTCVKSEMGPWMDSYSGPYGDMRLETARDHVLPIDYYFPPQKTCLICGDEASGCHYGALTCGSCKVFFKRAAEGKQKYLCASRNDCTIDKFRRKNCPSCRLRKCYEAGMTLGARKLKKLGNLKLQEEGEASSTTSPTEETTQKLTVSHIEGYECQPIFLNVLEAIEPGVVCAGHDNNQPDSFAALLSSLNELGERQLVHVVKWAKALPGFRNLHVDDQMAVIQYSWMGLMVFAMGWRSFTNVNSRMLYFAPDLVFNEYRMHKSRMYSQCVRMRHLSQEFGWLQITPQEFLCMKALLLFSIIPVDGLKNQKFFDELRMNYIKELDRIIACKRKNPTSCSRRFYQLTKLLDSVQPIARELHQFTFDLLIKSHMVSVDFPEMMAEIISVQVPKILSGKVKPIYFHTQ", "experiment": "AR activation, slp-ARE-Luc reporter in HepG2 cells transfected with pCMVhAR", "assay_type": "cell-based"}, "[3]": {"test_system": "human androgen receptor (hAR)", "design": "method as in Araki et al. 2005", "details": "at high concentrations; ref Araki et al. 2005; cited from earlier work"}, "[4]": {"test_system": "ER", "design": "method as in Blair et al. (2000)", "details": "natural ligand; ref Blair et al. (2000); cited from earlier work"}, "[5]": {"test_system": "ER", "design": "method as in Pillon et al. (2005)", "details": "natural ligand; ref Pillon et al. (2005); cited from earlier work"}, "[6]": {"test_system": "ER", "details": "17β-estradiol set to 100%, cited from earlier work"}, "[7]": {"test_system": "AR", "details": "DHT set to 100%, cited from earlier work"}, "[8]": {"test_system": "ER", "details": "17β-estradiol set to 100%, cited from earlier work", "remark": "listed apart in the source"}, "[9]": {"test_system": "HepG2 cells", "details": "21 hr after addition, ref Simon and Mueller 2006; cited from earlier work"}, "[10]": {"test_system": "AR", "details": "read-out: IC50 AR; natural ligand; ref Cabeza et al. (2004); cited from earlier work"}, "[11]": {"test_system": "AR", "details": "read-out: EC50 AR; natural ligand; ref Xu et al. (2005); cited from earlier work"}, "[12]": {"test_system": "AhR", "details": "TCDD set to 100%, cited from earlier work"}, "[13]": {"test_system": "L5178Y tk^+/tk^− mouse lymphoma-cell", "design": "method as in McGregor et al. 1991", "details": "ref McGregor et al. 1991; cited from earlier work"}, "[14]": {"test_system": "AhR", "experiment": "Relative binding affinity for AhR (Table 4)", "design": "species or system human", "details": "TCDD as reference ligand set to 100%", "from_the_text": "Table 4 RBA of ligands for human receptors. | column: AhR / RBA"}, "[15]": {"test_system": "AhR", "experiment": "Relative activation factor for AhR (Table 4)", "assay_type": "cell-based, human", "details": "TCDD as reference ligand set to 100%", "from_the_text": "Table 4 RBA of ligands for human receptors. | column: AhR / RAF"}, "[16]": {"test_system": "AhR", "design": "method as in Bonefeld-Jørgensen et al. (2007)", "details": "ref Bonefeld-Jørgensen et al. (2007); cited from earlier work"}, "[17]": {"test_system": "AhR", "design": "method as in Westerink et al. (2008)", "details": "ref Westerink et al. (2008); cited from earlier work"}, "[18]": {"test_system": "AR", "design": "method as in Viswanath et al. (2008)", "details": "DHT set to 100%; ref Viswanath et al. (2008); cited from earlier work"}, "[19]": {"test_system": "PR", "design": "method as in Viswanath et al. (2008)", "details": "natural ligand; ref Viswanath et al. (2008); cited from earlier work"}, "[20]": {"test_system": "PR", "design": "method as in Lenasi and Breskvar (2004)", "details": "natural ligand; ref Lenasi and Breskvar (2004); cited from earlier work"}, "[21]": {"details": "ref Bonefeld-Jørgensen et al. (2007)"}}, "note": "Where two headings read alike, the source gives them in different places. Marks after values point to notes of the source that are not given here."}
{"molecule": "BrC[C@@H](Br)[C@H]1CC[C@@H](Br)[C@H](Br)C1", "note": "(mixture of isomers) [TBECH-β, rac-(1R,2R)-1,2-dibromo-(4S)-4-[(1S)1,2-dibromoethyl]cyclohexane]", "values": [{"measurement": "IC50", "setting": "[1]", "result": 655, "unit": "nM"}, {"measurement": "EC50", "setting": "[2]", "result": 294, "unit": "nM"}]}
{"molecule": "CC(C)(C)c1ccc2c(c1)C(=O)c1ccccc1C2=O", "note": "[2-tert-butylanthraquinone]", "values": [{"measurement": "agonism to hAR", "setting": "[3]", "result": "weak agonists"}]}
{"molecule": "ClC1=C(Cl)C2(Cl)C3C4C=CC(C4)C3C1(Cl)C2(Cl)Cl", "note": "(centres unmarked) [Aldrin]", "values": [{"measurement": "ER RBA", "setting": "[6]; ref Sonneveld et al. (2005)", "result": "0.0029 ^h %"}, {"measurement": "AR RBA", "setting": "[7]; ref Fang et al. (2003)", "result": "0.007 ^f %"}]}
{"molecule": "CC(C)(c1ccc(O)cc1)c1ccc(O)cc1", "note": "[Bisphenol A]", "values": [{"measurement": "ER RBA", "setting": "[6]; ref Blair et al. (2000)", "result": "0.0077 ^a %"}, {"measurement": "ER RAF", "setting": "[8]; [21]", "result": "0.0183 ^d %"}, {"measurement": "AR RBA", "setting": "[7]; ref Scippo et al. (2004)", "result": "0.0018 ^c %"}]}
{"molecule": "C[C@]12CCC(=O)C[C@@H]1CC[C@@H]1[C@@H]2CC[C@]2(C)[C@@H](O)CC[C@@H]12", "note": "[DHT, dihydrotestosterone]", "values": [{"measurement": "reduction of hormone by metabolism", "setting": "[9]", "result": 46, "unit": "%"}, {"measurement": "IC50", "setting": "[10]", "result": "[…]"}, {"measurement": "EC50", "setting": "[11]", "result": "[…]"}]}
{"molecule": "ClC1=C(Cl)[C@]2(Cl)[C@@H]3[C@@H]4C[C@@H]([C@H]5O[C@@H]45)[C@@H]3[C@@]1(Cl)C2(Cl)Cl", "note": "[Dieldrin]", "values": [{"measurement": "ER RBA", "setting": "[6]; ref Sonneveld et al. (2005)", "result": "0.0019 ^h %"}, {"measurement": "ER RAF", "setting": "[8]; ref Pillon et al. (2005)", "result": "0.00001 ^b %"}]}
{"molecule": "Clc1ccc(-c2ccc(Cl)c(Cl)c2)cc1Cl", "note": "[PCB 77, 3,3′,4,4′-tetrachlorobiphenyl]", "values": [{"measurement": "ER RBA", "setting": "[6]; ref Blair et al. (2000)", "result": "< 0.0003 ^a %"}, {"measurement": "AhR RAF", "setting": "[12]; ref Zeiger et al. (2001)", "result": "0.025 ^i %"}]}
{"molecule": "BrCC(Br)C1CCC(Br)C(Br)C1", "note": "(centres unmarked) [TBECH, 1,2-dibromo-4-(1,2 dibromoethyl)cyclohexane]", "values": [{"measurement": "mutagenicity", "setting": "[13]", "result": "mutagenic"}]}
{"molecule": "Clc1cc2c(cc1Cl)Oc1cc(Cl)c(Cl)cc1O2", "note": "[TCDD, 2,3,7,8-tetrachlorodibenzo-p-dioxin, reference compound]", "values": [{"measurement": "AhR RBA", "setting": "[14]", "result": 100, "unit": "%"}, {"measurement": "AhR RAF", "setting": "[15]", "result": 100, "unit": "%"}, {"measurement": "IC50", "setting": "[16]", "result": 0.064, "unit": "nM"}, {"measurement": "EC50", "setting": "[17]", "result": 0.0488, "unit": "nM"}, {"measurement": "ER RBA", "setting": "[6]; ref Viswanath et al. (2008)", "result": "< 0.0002 ^g %"}, {"measurement": "ER RAF", "setting": "[8]; ref Viswanath et al. (2008)", "result": "0.00012 ^g %"}, {"measurement": "AR RBA", "setting": "[7]; ref Viswanath et al. (2008)", "result": "0.0013 ^g %"}, {"measurement": "AR RAF", "setting": "[18]", "result": "< 0.0013 ^g %"}]}
{"molecule": "C[C@]12CC[C@H]3[C@@H](CCC4=CC(=O)CC[C@@]43C)[C@@H]1CC[C@@H]2O", "note": "[Testosterone, testosterone]", "values": [{"measurement": "reduction of hormone by metabolism", "setting": "[9]", "result": 82, "unit": "%"}]}
{"molecule": "C=CC1(C)OC(=O)N(c2cc(Cl)cc(Cl)c2)C1=O", "note": "(centres unmarked) [Vinclozolin]", "values": [{"measurement": "ER RBA", "setting": "[6]; ref Blair et al. (2000)", "result": "< 0.0009 ^a %"}, {"measurement": "AR RBA", "setting": "[7]; ref Fang et al. (2003)", "result": "0.0023 ^f %"}, {"measurement": "AR RAF", "setting": "[18]", "result": "0.0126 ^g %"}]}
{"molecule": "O=C1c2ccccc2-c2cccc3cccc1c23", "note": "[benzoanthrone]", "values": [{"measurement": "agonism to hAR", "setting": "[3]", "result": "weak agonists"}]}
{"molecule": "Clc1ccc(C(c2ccccc2Cl)C(Cl)(Cl)Cl)cc1", "note": "(centres unmarked) [o,p′-DDT]", "values": [{"measurement": "ER RBA", "setting": "[6]; ref Blair et al. (2000)", "result": "0.0014 ^a %"}, {"measurement": "ER RAF", "setting": "[8]; ref Legler et al. (1999)", "result": "0.0009 ^e %"}, {"measurement": "AR RBA", "setting": "[7]; ref Fang et al. (2003)", "result": "0.0149 ^f %"}, {"measurement": "AR RAF", "setting": "[18]", "result": "0.0126 ^g %"}]}
{"molecule": "Nonylphenol", "values": [{"measurement": "ER RBA", "setting": "[6]; ref Blair et al. (2000)", "result": "0.037 ^a %"}, {"measurement": "ER RAF", "setting": "[8]; ref Pillon et al. (2005)", "result": "0.00016 ^b %"}, {"measurement": "AR RBA", "setting": "[7]; ref Scippo et al. (2004)", "result": "0.0523 ^c %"}, {"measurement": "AhR RAF", "setting": "[12]; [21]", "result": "0.0003 ^d %"}]}
